These results are taken from US20090036555A1, “Stabilization of iodine biocides” (priority 2005, published 2009).

The data set is described as follows: Storage stability of IPBC in Dowanol TPM solution with cobalt dryer and stabilizer, IPBC amount by HPLC. The format is physicochemical. As to conditions: solution in Dowanol TPM with 10% by weight IPBC, 5% by weight Octasoligen-Cobalt 8, 5% by weight stabilizer; for Amount of IPBC (2 weeks, 40° C.): after two weeks storage at 40° C.; for Amount of IPBC (start): at the beginning. The procedure: A solution is prepared in Dowanol TPM (tripropylene glycol methyl ether), containing 10% by weight of iodopropargyl butylcarbamate, 5% by weight of Octasoligen-Cobalt 8 (Borchers, Langenfeld, Germany) and 5% by weight of the stabilizer specified in Table 1. The compositions are stored at 40° C. The amount of IPBC was determined by means of HPLC at the beginning and after two weeks.

Regarding `C=C(C)C(=O)OCCc1ccc(O)c(-n2nc3ccccc3n2)c1` [Example 2], the “Amount of IPBC (2 weeks, 40° C.)” value stood at 9.3% and the “Amount of IPBC (start)” value is 9.9%.
With `CC(C)(C)CC(C)(C)c1ccc(O)c(-n2nc3ccccc3n2)c1` [Example 3], the “Amount of IPBC (2 weeks, 40° C.)” value came to 9.5% and the “Amount of IPBC (start)” value is 9.9%.
Regarding `CC(C)(C)c1ccc(O)c(-n2nc3ccccc3n2)c1` [Example 5], the “Amount of IPBC (2 weeks, 40° C.)” value was 9.8% and the “Amount of IPBC (start)” value came out at 9.8%.
Turning to `OCCc1ccc(O)c(-n2nc3ccccc3n2)c1` [Example 1], the “Amount of IPBC (2 weeks, 40° C.)” value turned out to be 10.4% and the “Amount of IPBC (start)” value came to 11.3%.
As for `Cc1ccc(O)c(-n2nc3ccccc3n2)c1` [Example 4], the “Amount of IPBC (2 weeks, 40° C.)” value is 9.3% and the “Amount of IPBC (start)” value came out at 9.9%.
